Results as given in patent publication US20260042854A1, “ANTI-GLP-1R ANTIBODIES AND USES THEREOF” (SCIWIND BIOSCIENCES USA CO., LTD, priority 2022, published 2026).

Legend:
C57BL/6 mice = assay: IPGTT in C57BL/6 mice (exogenous GLP-1 added); assay type: in vivo, mouse; conditions: GLP-1 25.0 nmol/kg i.p. with glucose
Protocol: 7-9-week-old male C57BL/6 mice (22-26 g) were assigned into 5 groups, with 5 mice in each group, and the mice in each group were treated according to the scheme shown in Table 6. The antibody treatment groups were given a single subcutaneous injection, and were fasted for 18 hours after the administration. […] The blood glucose levels of the mice before (0 min) and 15 min, 30 min. 60 min, 90 min, 120 min and 180 min after the administration of glucose were measured with blood glucose meter. The AUCs of the blood glucose-time curves of each mouse from 0 to 180 min were calculated with GraphPad Prism 9. The blood glucose levels and the AUCs were shown in Mean±SEM and the differences among groups were compared. Statistical differences were analyzed with One-way ANOVA. […] The significance markers were not shown in the line chart since they would overlap and be difficult to distinguish.

humanized GLP-1R mice = assay: IPGTT in humanized GLP-1R mice (exogenous GLP-1 added); assay type: in vivo, mouse; conditions: GLP-1 25 nmol/kg i.p. with glucose
Protocol: 10-week-old female humanized GLP-1R mice (25-28 g, Shanghai Model Organisms Center Inc.) were assigned into 5 groups, with 5 mice in each group, and each group was treated according to the scheme in Table 6. The antibody treatment groups were subcutaneously injected with antibody, while the other groups were subcutaneously injected with vehicle (PBS) once a week for 2 consecutive weeks. IPGTTs were performed one day after the administration. The first subcutaneous administration of the antibody was on Day 0, and the second subcutaneous administration was on Day 7.
The blood glucose levels of the mice before (0 min) and 15 min, 30 min, 60 min, 90 min, 120 min and 180 min after the administration of glucose were measured with blood glucose meter. The AUCs of the blood glucose-time curves of each mouse from 0 to 180 min were calculated with GraphPad Prism 9. […] Statistical differences were analyzed with One-way ANOVA. […]
10-week-old female humanized GLP-1R mice (25-28 g) were assigned into 5 groups, with 5 mice in each group, and each group was treated according to the scheme in Table 10. […] The blood glucose levels of the mice before (0 min) and 15 min, 30 min, 60 min, 90 min, 120 min and 180 min after the administration of glucose were measured with blood glucose meter. The AUCs of the blood glucose-time curves of each mouse were calculated with GraphPad Prism 9. […]

Mouse GLP-1R = molecular target: T1, Mouse GLP-1R (Mus musculus, UniProt O35659); assay: cAMP HTRF antagonism assay in HEK293 transfected with mouse GLP-1R; assay type: cell-based
T1 construct: expressed in transfected cells; host or cells: HEK293 (ATCC, CRL-1573)
T1 sequence (O35659 22-463): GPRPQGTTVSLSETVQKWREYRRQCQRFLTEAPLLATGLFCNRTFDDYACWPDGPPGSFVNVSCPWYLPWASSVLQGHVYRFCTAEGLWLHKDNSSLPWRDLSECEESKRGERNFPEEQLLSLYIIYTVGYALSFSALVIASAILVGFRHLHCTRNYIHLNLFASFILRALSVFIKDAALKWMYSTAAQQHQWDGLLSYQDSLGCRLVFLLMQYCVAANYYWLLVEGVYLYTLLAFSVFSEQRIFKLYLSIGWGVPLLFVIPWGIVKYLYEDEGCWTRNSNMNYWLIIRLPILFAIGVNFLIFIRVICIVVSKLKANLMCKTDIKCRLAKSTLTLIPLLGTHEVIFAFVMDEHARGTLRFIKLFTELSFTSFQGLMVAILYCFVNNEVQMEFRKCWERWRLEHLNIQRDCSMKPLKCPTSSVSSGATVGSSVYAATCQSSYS
Protocol: HEK293 cells (ATCC, cat no. CRL-1573) were transfected with GLP-1R_pcDNA3.1/G418 (+) plasmids which can transcribe the mRNA of human (NM_002062.5), monkey (JN033215.1) and mouse (NM_021332.2) GLP-1R polypeptide. […] The plate was further incubated at 37° C. for 120 minutes. Finally, the CAMP level was measured with cAMP HTRF kit (Cisbio, 62AM4PEB). […] The data were analyzed by four-parameter curve fitting with GraphPad Prism 9, and IC50 was calculated.

| Substance | effect of GLP-1 on blood glucose levels (in words) (C57BL/6 mice) | effect of GLP-1 on blood glucose levels (in words) (humanized GLP-1R mice) | antagonism of activation of mouse GLP-1R by GLP-1 (in words) (Mouse GLP-1R) |
| --- | --- | --- | --- |
| GLP-1: native GLP-1 (7-37aa, R&D Systems, cat no. 5374/1), agonist used to activate GLP-1R (HAEGTFTSDVSSYLEGQAAKEFIAWLVKGRG; Glucagon-like peptide 1(7-37); UniProt P01275 98-128, looked up) [reference compound] | could lower blood glucose levels | can effectively lower the blood glucose levels |  |
| exendin 9-39 [Avexitide, reference compound] |  |  | does antagonize the activation of mouse GLP-1R by GLP-1 |
